Measurements: article PMC11018852, “Scutellarin activates IDH1 to exert antitumor effects in hepatocellular carcinoma progression” (Cell Death & Disease, 2024)

Target: T1, IDH1 (Homo sapiens, UniProt O75874)
T1 construct: residues 1–414
Assay: biolayer interferometry on recombinant IDH1 (repeat Kd […]); supported by DSF, CETSA, LC-MS/MS adduct at Cys297, enzyme activation EC50 […]
Assay type: binding

T1 sequence (O75874 whole entry, the tested form may be a part): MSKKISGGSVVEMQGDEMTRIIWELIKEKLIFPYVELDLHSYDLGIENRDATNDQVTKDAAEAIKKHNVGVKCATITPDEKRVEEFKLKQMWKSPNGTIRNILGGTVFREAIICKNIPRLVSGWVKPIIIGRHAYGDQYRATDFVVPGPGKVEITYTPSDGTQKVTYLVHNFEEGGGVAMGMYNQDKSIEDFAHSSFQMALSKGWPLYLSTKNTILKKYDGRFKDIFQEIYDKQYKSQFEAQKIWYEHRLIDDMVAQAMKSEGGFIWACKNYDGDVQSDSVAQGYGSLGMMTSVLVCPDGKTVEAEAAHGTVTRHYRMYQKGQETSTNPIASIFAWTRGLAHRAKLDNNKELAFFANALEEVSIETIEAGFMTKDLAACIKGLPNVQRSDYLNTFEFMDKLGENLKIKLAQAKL

O=C(O)[C@H]1O[C@@H](Oc2cc3oc(-c4ccc(O)cc4)cc(=O)c3c(O)c2O)[C@H](O)[C@@H](O)[C@@H]1O [Scu, scutellarin]
Kd: 11.5 µM
